Results from paper PMC10786919, “Design-rules for stapled peptides with in vivo activity and their application to Mdm2/X antagonists” (Nature Communications, 2024).
≈ marks a conversion by molar mass, not a printed value. Positions of bridges follow the written chain, without caps; N, C: chain ends. Non-standard residues stand in square brackets, D forms with d. Residues, ends and D or L forms follow the SMILES beside them. R8 = C=CCCCCCC[C@@](C)(N)C(=O)O; Cba = N[C@@H](CC1CCC1)C(=O)O; S5 = C=CCCC[C@](C)(N)C(=O)O

Tests used:
[1] = physchem
[2] = Experimental LogD (partition coefficient); details: for logD: not stated, Partition Coeff LogD
[3] = tested on: HCT116 cells; experiment: Lactate dehydrogenase (LDH) release assay; format: cell-based
Summary of the method: (§1)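 A p53 β-lactamase reporter HCT116 line, 8000 cells per well, is exposed to test compounds at 0.5% final DMSO and scored for LDH leakage.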

[4] = Lactate dehydrogenase (LDH) release assay; format: cell-based; details: LDH: Cytotoxicity assay: EC50
Summary of the method: as §1

[5] = Solubility assay (kinetic solubility, PBS pH 7); format: physicochemical; details: pH 7, PBS; for solubility kinetic: pH 7, aqueous buffer, kinetic from dmso stock, read-out: Solubility
Summary of the method: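 Reference standards were made by diluting the 10 mM stock to 100 µM in acetonitrile:methanol:DMSO 10:80:10. Solubility in µM was calculated as the sample peak area divided by the standard peak area, multiplied by the standard concentration.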

| SMILES | EPSA [1] [A^2] | Partition Coeff LogD [2] | LDH: Cytotoxicity assay: % Effect [3] [%] | EC50 [4] [µM] | Solubility [5] | logD [2] | solubility kinetic [5] [µM] |
| --- | --- | --- | --- | --- | --- | --- | --- |
| CC(=O)N[C@@H](CC(C)C)C(=O)N[C@H](C(=O)N[C@@H](Cc1ccccc1)C(=O)N[C@]1(C)CCCCCCC=CCCC[C@@](C)(C(=O)N[C@@H](CO)C(=O)N[C@@H](C)C(=O)N[C@@H](C)C(N)=O)NC(=O)[C@H](CC2CCC2)NC(=O)[C@H](CC(C)C)NC(=O)[C@H](CCC(N)=O)NC(=O)[C@H](C)NC(=O)[C@H](Cc2ccc(O)cc2)NC(=O)[C@H](CCC(=O)O)NC1=O)[C@@H](C)O [MP-364] (Ac-LTF[R8]EYAQL[Cba][S5]SAA-NH2; staple 4-11) | 196 | Poorly Behaved | 68.78 | 16 | Poorly Behaved |  |  |
| CC(=O)N[C@H](C)C(=O)N[C@H](C)C(=O)N[C@H](C)C(=O)N[C@H](C)C(=O)N[C@@H](CC(C)C)C(=O)N[C@H](C(=O)N[C@@H](Cc1ccccc1)C(=O)N[C@]1(C)CCCCCCC=CCCC[C@@](C)(C(=O)N[C@@H](CO)C(=O)N[C@@H](C)C(=O)N[C@@H](C)C(N)=O)NC(=O)[C@H](CC2CCC2)NC(=O)[C@H](CCC(N)=O)NC(=O)[C@H](C)NC(=O)[C@H](Cc2c[nH]c3ccccc23)NC(=O)[C@H](Cc2ccc(O)cc2)NC(=O)[C@H](CCC(=O)O)NC1=O)[C@@H](C)O [MP-365] | 210 |  | -0.1776 | > 50.6 |  | 2.6 | 76.3 (≈ 155 µg/mL) |
| CC(=O)N[C@@H](CC(C)C)C(=O)N[C@H](C(=O)N[C@@H](Cc1ccccc1)C(=O)N[C@]1(C)CCCCCCC=CCCC[C@@](C)(C(=O)N[C@@H](CO)C(=O)N[C@@H](C)C(=O)N[C@@H](C)C(N)=O)NC(=O)[C@H](CC2CCC2)NC(=O)[C@H](CC(C)C)NC(=O)[C@H](CCC(N)=O)NC(=O)[C@@H](Cc2c[nH]c3ccccc23)NC(=O)[C@H](Cc2ccc(O)cc2)NC(=O)[C@H](CCC(=O)O)NC1=O)[C@@H](C)O [MP-594] | 203 |  | 35.22 | 14.8 |  | 2.83 | 11 (≈ 19.7 µg/mL) |
| CC(=O)N[C@@H](CC(C)C)C(=O)N[C@H](C(=O)N[C@@H](C)C(=O)N[C@]1(C)CCCCCCC=CCCC[C@@](C)(C(=O)N[C@@H](CO)C(=O)N[C@@H](C)C(=O)N[C@H](C)C(N)=O)NC(=O)[C@H](CC2CCC2)NC(=O)[C@H](CC(C)C)NC(=O)[C@H](CCC(N)=O)NC(=O)[C@H](Cc2c[nH]c3ccccc23)NC(=O)[C@H](Cc2ccc(O)cc2)NC(=O)[C@H](CCC(=O)O)NC1=O)[C@@H](C)O [MP-671] (Ac-LTA[R8]EYWQL[Cba][S5]SA[dA]-NH2; staple 4-11) | 199 |  | 3.06 | > 50.6 |  | 2.27 | 74.3 (≈ 127 µg/mL) |
| CC(=O)N[C@@H](CC(C)C)C(=O)N[C@H](C(=O)N[C@@H](Cc1ccccc1)C(=O)NC(C)(C)C(=O)N[C@@H](CCC(=O)O)C(=O)N[C@@H](Cc1ccc(O)cc1)C(=O)N[C@@H](Cc1c[nH]c2ccccc12)C(=O)N[C@H](CCC(N)=O)C(=O)N[C@@H](CC(C)C)C(=O)N[C@@H](CC1CCC1)C(=O)NC(C)(C)C(=O)N[C@@H](CO)C(=O)N[C@@H](C)C(=O)N[C@@H](C)C(N)=O)[C@@H](C)O [MP-786] | 187 |  | 7.785 | > 50.6 |  | 1.99 | 170 (≈ 283 µg/mL) |
| CC(=O)N[C@H](CC(C)C)C(=O)N[C@H](C(=O)N[C@@H](Cc1ccccc1)C(=O)NC(C)(C)C(=O)N[C@@H](CCC(=O)O)C(=O)N[C@@H](Cc1ccc(O)cc1)C(=O)N[C@@H](Cc1c[nH]c2ccccc12)C(=O)N[C@@H](CCC(N)=O)C(=O)N[C@@H](CC(C)C)C(=O)N[C@@H](CC1CCC1)C(=O)NC(C)(C)C(=O)N[C@@H](CO)C(=O)N[C@@H](C)C(=O)N[C@@H](C)C(N)=O)[C@@H](C)O [MP-787] | 190 |  | 4.125 | > 50.6 |  | 2.16 | 24 (≈ 40 µg/mL) |
